The values below come from the METLIN SMRT retention time set (Domingo-Almenara et al. 2019).

The data set can be described thus: gradient 5% acetonitrile 3 min, to 50% in 2 min, to 85% in 15 min, held 3 min, 100 µL/min. Conditions: column: Zorbax Extend-C18 2.1 x 50 mm; eluents: water / acetonitrile, 0.1% formic acid. The procedure, abridged: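 A Zorbax Extend-C18 column (2.1 × 50 mm, 1.8 μm) run at 100 μL/min with water and acetonitrile, both containing 0.1% formic acid, separated mixtures of ~100 pure standards. The HPLC was coupled to a quadrupole time-of-flight mass spectrometer operated in positive and negative ionization mode, with dead and dwell volumes of 40 μL and 900 μL. Each retention time was taken from a computationally picked adduct peak that was then manually inspected.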
For `CC1CCCN(CCCNC(=O)C2CCN(S(=O)(=O)c3ccc4c(c3)sc(=O)n4C)CC2)C1` (stereo not given), the RP-LC retention time came to 612 s.

As to `CN(C)c1ccc(C(=O)NC2CCN(c3cc(-c4ccccc4)[nH]n3)C2)cc1` (stereo not given), the RP-LC retention time came out at 705 s.

Turning to `COc1ccc2c(c1)c(CN1CCC(N3C[C@H](OC)[C@@H]3c3cccnc3)CC1)cn2C(C)C`, the RP-LC retention time was 596 s.

With `O=C(COc1ncccn1)NC1CCCCC1`, the RP-LC retention time is 624 s.

Consider `Cc1ccc(NS(=O)(=O)c2cc(-c3nc(C)cs3)sc2C)c(C)c1`, for which the RP-LC retention time is 1090 s.

On to `Cc1cc(C(=O)NCc2ccc(F)cc2F)nc2cc(-c3cccs3)nn12`, for which the RP-LC retention time came to 1140 s.

The compound `O=c1ccc(N2CCCN(S(=O)(=O)c3ccc(F)cc3)CC2)nn1-c1ccc(Cl)cc1` yielded an RP-LC retention time of 926 s.

Take `Cc1ccc(CN2CCC(CNC(=O)C3CCCN(c4nccc(C)n4)C3)CC2)cc1` (stereo not given): the RP-LC retention time came out at 594 s.

The compound `CCCNC(=O)c1cc2c(s1)N(C)CCC2` had an RP-LC retention time of 771 s.

Consider `Cc1ccc(C)c(N2CCN(c3ccc4cc(S(=O)(=O)N5CCCCC5C)ccc4n3)CC2)c1` (stereo not given), for which the RP-LC retention time amounted to 1340 s.

In the case of `COc1ccc(CSc2nnc3c(S(=O)(=O)N4CCCC4)cccn23)cc1F`, the RP-LC retention time is 825 s.

`O=C(NCCc1csc(-c2ccccc2)n1)C1CCN(C(=O)c2cccc(Cl)c2)CC1` displayed an RP-LC retention time of 846 s.

In the case of `Cc1cccc(NC(=O)C(=O)NCCc2cccs2)n1`, the RP-LC retention time amounted to 788 s.

Compound `Cc1ccccc1-c1cc(N2CCN(C(=O)NCC3CCCO3)CC2)ncn1` (stereo not given) returned an RP-LC retention time of 600 s.

`Cc1cc(C(=O)N2CCC3(CCC3OCC(N)=O)CC2)c(C)o1` (stereo not given) yielded an RP-LC retention time of 681 s.

For `CCc1cc(=O)n(CC(=O)NC2CCCC2)c(N2CCOCC2)n1`, the RP-LC retention time stood at 647 s.

In turn, `O=[N+]([O-])c1cccc(-c2ccc(SCc3ccccn3)nn2)c1` gave an RP-LC retention time of 637 s.

Compound `Nc1nc(F)nc2c1ncn2[C@@H]1O[C@H](COP(=O)(O)O)[C@@H](O)[C@@H]1O` had an RP-LC retention time of 534 s.

Regarding `COCC(=O)N1CCCc2ccc(NC(=O)c3cc(C)on3)cc21`, the RP-LC retention time came out at 680 s.

`CS(=O)(=O)c1ccc(C(=O)N2CCN(c3ccccc3)CC2)cc1`: the RP-LC retention time was determined as 683 s.

`O=C(Nc1cnn(-c2ncncc2N2CCCCC2)c1)C1CCCCC1` gave an RP-LC retention time of 821 s.

Compound `Cc1cccc(CNC(=O)C2(C)Cn3cnc(C(=O)NC4CCCCC4)c3C(=O)N2C2CC2)c1` (stereo not given) returned an RP-LC retention time of 819 s.

For `COc1ccccc1N1CCN(C(=O)C2CCN(c3cnc4nccnc4c3)CC2)CC1`, the RP-LC retention time came to 673 s.

`O=C(c1ccc(N2CCCCS2(=O)=O)cc1)N1CCN(C(=O)c2ccco2)CC1` had an RP-LC retention time of 609 s.

Compound `O=C(CSc1nnc(-c2ccco2)n1-n1cccc1)Nc1cccc(C(F)(F)F)c1` had an RP-LC retention time of 897 s.

Turning to `Fc1ccc(-c2nc(-c3cccc(-c4ccn[nH]4)c3)no2)cc1`, the RP-LC retention time came to 1000 s.

In turn, `CCc1ccc(C(C)NC(=O)c2cccc(C3CCCN(C(=O)NC(C)C)C3)c2)cc1` (stereo not given) gave an RP-LC retention time of 1010 s.

As to `O=C(NC1CCN(c2cc(-c3ccc(F)cc3)[nH]n2)C1)c1ccccc1F` (stereo not given), the RP-LC retention time worked out at 714 s.

In turn, `Cc1ccc(Nc2ccc(NC(=O)c3ccccc3F)cc2)nn1` had an RP-LC retention time of 568 s.

On to `CC(NC(=O)c1cn2cc(Cl)ccc2n1)c1ccc(F)cc1` (stereo not given), for which the RP-LC retention time stood at 836 s.

The compound `COc1cccc(NC(=O)Cn2nc3cc(C)nc(Nc4ccc(C)c(C)c4)n3c2=O)c1` came in with an RP-LC retention time of 1100 s.

For `O=C1CCCN1c1ccc(Cn2nc3c(S(=O)(=O)N4CCCC4)cccn3c2=O)cc1`, the RP-LC retention time was 673 s.

As for `Cc1cc(C)c(C)c(S(=O)(=O)N2CCn3c(nn(CC4CC4)c3=O)C2)c1C`, the RP-LC retention time is 943 s.

On to `Cc1cc2nn(CC(=O)Nc3cccc(Cl)c3)c(=O)n2c(N2CCCC2)n1`, for which the RP-LC retention time turned out to be 813 s.

For the compound `Cc1cccc(-c2nnc(C)c(N3CCN(c4ccccn4)CC3)n2)c1`, the RP-LC retention time was found to be 589 s.

On to `CCOC(=O)N1CCN(C(=O)CSc2ccc(-c3ccc(OC)cc3)nn2)CC1`, for which the RP-LC retention time was 716 s.

For `CC(C)Cn1nc2ccc(S(=O)(=O)N3CCC(C)CC3)cn2c1=O`, the RP-LC retention time came to 862 s.

The compound `CC(=O)N1CCc2cc(N3CC(C(=O)Nc4ccc(F)cc4F)CC3=O)ccc21` (stereo not given) had an RP-LC retention time of 688 s.

`Cc1ccsc1-c1nnc(CC(=O)N2CCN(c3ccccc3)CC2)o1` displayed an RP-LC retention time of 872 s.

With `Cc1nnc(NC(=O)c2ccc(N3CCCC3)nn2)s1`, the RP-LC retention time stood at 594 s.

Turning to `Cc1noc(C2(NC(=O)C3CCC3)CCCCC2)n1`, the RP-LC retention time came to 745 s.

In turn, `CCC(=O)N1CCc2cc(N3CC(C(=O)NCc4cccc(C)c4)CC3=O)ccc21` (stereo not given) displayed an RP-LC retention time of 745 s.

As to `COCCNc1c(-c2ccccc2)nc2sc(C(=O)N3CCCC3)c(C)n12`, the RP-LC retention time was 922 s.

For the compound `O=C([C@@H]1C[C@H](Oc2cccnc2)CN1C(=O)Cn1c(=O)oc2ccccc21)N1CCCC1`, the RP-LC retention time came out at 601 s.

`CCOc1ccccc1NC(=O)c1c(O)c2cccnc2n(-c2cccc(F)c2)c1=O` displayed an RP-LC retention time of 1320 s.

The compound `Cc1cc(C)c(S(=O)(=O)NCC2CN(C)CC23CCCCC3)c(C)c1` (stereo not given) displayed an RP-LC retention time of 590 s.

The compound `CCn1c(=O)sc2cc(S(=O)(=O)N3CCC(C(=O)NCC4CCCO4)CC3)ccc21` (stereo not given) came in with an RP-LC retention time of 719 s.

`O=C(COc1ccc(Cl)cc1)Nc1ccc(-c2nnc3n2CCCC3)cc1` returned an RP-LC retention time of 757 s.

Regarding `O=C(Cn1nc2c(N3CCCCCC3)nccn2c1=O)NCCC1=CCCCC1`, the RP-LC retention time is 784 s.

Compound `O=C(Nc1nccs1)c1ccc(Br)cc1F` gave an RP-LC retention time of 783 s.

Take `O=C(c1cccc2[nH]ccc12)N1CC(Oc2ccc(-c3nc(-c4ccccc4)no3)cc2)C1`: the RP-LC retention time is 1100 s.

Take `CCCn1cc(CCNC(=O)Nc2cc(F)c(F)c(F)c2)c2cccnc21`: the RP-LC retention time was 866 s.

In turn, `Cc1cc(C)cc(Nc2nc(C)cc3nn(CC(=O)N4CCC(C)CC4)c(=O)n23)c1` had an RP-LC retention time of 1160 s.

In turn, `CCc1nnc(-c2cc(C)n(CC(=O)Nc3ccc(OC)cc3)c2C)o1` displayed an RP-LC retention time of 753 s.

As for `CCOC(=O)c1nnc2c(-c3ccccc3)c(C)nn2c1N`, the RP-LC retention time came out at 828 s.

With `Cc1cccc(C2CCCN2C(=O)c2c(Cl)cnn2C)c1` (stereo not given), the RP-LC retention time stood at 891 s.

Take `CCN(CC)C(=O)N1CCC(c2noc(-c3ccccc3)n2)C1` (stereo not given): the RP-LC retention time came to 892 s.

In the case of `CCc1noc(NC(C)=O)c1-c1ccc(C)c(S(=O)(=O)Nc2cccc(C)c2)c1`, the RP-LC retention time came out at 826 s.

Consider `COc1ccc(C(C)NC(=O)c2cn3cc(C)ccc3n2)cc1OC` (stereo not given), for which the RP-LC retention time was determined as 630 s.

With `O=C(Cc1ccccc1Cl)N1CCc2nc[nH]c2C1`, the RP-LC retention time was found to be 584 s.

On to `Cc1cccc(CN2C(=O)CN(S(=O)(=O)c3ccccc3)CC2(C)C(=O)NCCC(C)C)c1` (stereo not given), for which the RP-LC retention time was found to be 1030 s.

`CCC(=O)N1CCc2cc(-c3ccc(C(=O)NCCN4CCN(CC)CC4)cc3)ccc21` yielded an RP-LC retention time of 604 s.

Take `CC(NC(=O)C1=CCN(Cc2ccc(F)cc2)CC1)c1ccccc1` (stereo not given): the RP-LC retention time is 640 s.

Turning to `O=C(CCc1nnc(C(=O)Nc2ccccc2)s1)NCCc1c[nH]c2ccc(Cl)cc12`, the RP-LC retention time worked out at 921 s.

`Cc1cccn2cc(-c3cccc(NS(=O)(=O)c4ccc(Cl)c(Cl)c4)c3)nc12` registered an RP-LC retention time of 747 s.

The compound `Cc1noc2nc(C)n(CC(=O)NC3CCCc4ccccc43)c(=O)c12` (stereo not given) showed an RP-LC retention time of 822 s.

As to `CCCC(=O)Nc1ccc(-n2cnc(C(=O)N3CCSCC3)c2)nc1`, the RP-LC retention time stood at 671 s.

In turn, `COC(=O)c1cc(S(=O)(=O)N2CCCC2C(=O)Nc2cccc(F)c2)cn1C` (stereo not given) yielded an RP-LC retention time of 883 s.

With `O=C1NC(=O)c2c(NC(=O)C3(c4ccc(Cl)cc4)CCCC3)cccc21`, the RP-LC retention time turned out to be 1060 s.

Compound `CCOC(=O)C1=C(C)NC2=C(C(=O)C(C(=O)OC)C(C)C2)C1c1cccc(F)c1` (stereo not given) displayed an RP-LC retention time of 908 s.

`COc1ccc(OC)c(NC(=O)Nc2cccc(-c3nccnc3N3CCCC3)c2)c1`: the RP-LC retention time worked out at 916 s.

Compound `CC(C)(C)c1ccc(C(=O)NCCCn2ncccc2=O)cc1` showed an RP-LC retention time of 731 s.

Consider `CCOc1coc(C(=O)NCCc2ccc(Cl)cc2)cc1=O`, for which the RP-LC retention time was 706 s.

For the compound `O=C(NCCc1c[nH]c2ccccc12)C1CCN(c2nc3ccccc3[nH]2)CC1`, the RP-LC retention time worked out at 615 s.

`CSc1nnc(Cc2nnc(SC)n2-c2ccccc2)n1-c1ccccc1` yielded an RP-LC retention time of 784 s.

The compound `O=C(c1ccccc1Br)N1CCN=C1N1CCN(c2ccccc2F)CC1` showed an RP-LC retention time of 757 s.

Compound `CCC(C)(C)C(=O)N1CCCC(c2nc(CCNC(=O)C3CC3)cs2)C1` (stereo not given) displayed an RP-LC retention time of 767 s.

The compound `COc1ccc2c(c1)C1(CCN(C(=O)c3cccc(Cl)c3)C1)C(=O)N2C` (stereo not given) gave an RP-LC retention time of 831 s.

The compound `COc1cccc(C(=O)CSc2ccc(NC(=O)c3cccs3)nn2)c1` had an RP-LC retention time of 846 s.

For `COCCCNC(=O)CN1C(=O)C2CCCCN2c2ccc(C(=O)N3CCCCC3)cc21` (stereo not given), the RP-LC retention time worked out at 729 s.
